Data from patent publication US20120129842A1, “BISTHIAZOLE INHIBITORS OF PRO-MATRIX METALLOPROTEINASE ACTIVATION” (priority 2010, published 2012).
Where a name gives a salt, the structure may show the parent alone.

Assays:
[1] = target: T1, proMMP9(20-445;ΔFnII) (SEQ ID NO:6) (Homo sapiens, UniProt P14780, DEL216-390); experiment: ThermoFluor binding assay with proMMP9(20-445;ΔFnII); conditions: pH 7.0
T1 construct: start methionine (N); made in house; host or cells: E. coli BL21(DE3) RIL
T1 sequence (P14780 with tags, fused parts or gaps DEL216-390): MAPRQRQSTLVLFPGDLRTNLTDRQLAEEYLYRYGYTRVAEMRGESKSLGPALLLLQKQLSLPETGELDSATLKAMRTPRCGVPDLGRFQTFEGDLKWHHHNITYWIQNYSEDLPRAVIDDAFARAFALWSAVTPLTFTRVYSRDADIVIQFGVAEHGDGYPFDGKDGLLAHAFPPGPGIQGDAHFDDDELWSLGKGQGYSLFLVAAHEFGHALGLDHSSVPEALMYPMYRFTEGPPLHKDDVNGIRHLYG
Procedure: (§1) The ThermoFluor® (TF) assay is a 384-well plate-based binding assay that measures thermal stability of proteins (Biomol Screen 2001, 6, 429-40; Biochemistry 2005, 44, 5258-66). The experiments were carried out using instruments available from Johnson & Johnson Pharmaceutical Research & Development, LLC. TF dye used in all experiments was […] (1,8-ANS) (Invitrogen: A-47).
(§2) Compounds were arranged in a pre-dispensed plate (Greiner Bio-one: 781280), wherein compounds were serially diluted in 100% DMSO across 11 columns within a series. Columns 12 and 24 were used as DMSO reference and contained no compound. For multiple compound concentration-response experiments, the compound aliquots ([…]) were robotically predispensed directly into black 384-well polypropylene PCR microplates (Abgene: TF-0384/k) using a Cartesian Hummingbird liquid handler (DigiLab, Holliston, Mass.). Following compound dispense, protein and dye solutions were added to achieve the final assay volume of 3 μL. The assay solutions were overlayed with 1 μL of silicone oil (Fluka, type DC 200: 85411) to prevent evaporation.
(§3) Assay plates were robotically loaded onto a thermostatically controlled PCR-type thermal block and then heated from 40 to 90° C. at a ramp-rate of 1° C./min for all experiments. Fluorescence was measured by continuous illumination with UV light (Hamamatsu LC6) supplied via fiber optics and filtered through a band-pass filter (380-400 nm; >6 OD cutoff). Fluorescence emission of the entire 384-well plate was detected by measuring light intensity using a CCD camera (Sensys, Roper Scientific) filtered to detect 500±25 nm, resulting in simultaneous and independent readings of all 384 wells. A single image with 20-sec exposure time was collected at each temperature, and the sum of the pixel intensity in a given area of the assay plate was recorded vs temperature and fit to standard equations to yield the Tm (J Biomol Screen 2001, 6, 429-40).
(§4) Thermodynamic parameters necessary for fitting compound binding for each proMMP were estimated by differential scanning calorimetry (DSC) and from ThermoFluor® data. The heat capacity of unfolding for each protein was estimated from the molecular weight and from ThermoFluor® dosing data.
The protein sample preparations included a desalting buffer exchange step via a PD-10 gravity column (GE Healthcare). The desalting buffer exchange was performed prior to diluting the protein to the final assay concentration of 2.8 μM proMMP9(20-445;ΔFnII) (SEQ ID NO:6). The concentration of proMMP9(20-445;ΔFnII) (SEQ ID NO:6) was determined spectrophotometrically based on a calculated extinction coefficient of ε280=39880 M^−cm^−1, a calculated molecular weight of 28.2 kDa, and calculated pI of 5.5. ThermoFluor® reference conditions were define as follows: 80 μg/mL (2.8 μM) proMMP9(20-445;ΔFnII) (SEQ ID NO:6), 50 μM 1,8-ANS, pH 7.0 Buffer (50 mM HEPES pH 7.0, 100 mM NaCl, 0.001% Tween-20, 2.5 mM MgCl2, 300 μM CaCl2). The thermodynamic parameters for proMMP9(20-445;ΔFnII) (SEQ ID NO:6) are as follows: Tm (° C.)=72 (+/−0.1), ΔUH(Tm) (cal mol^−1)=160000(+/−5000), ΔUS(Tm) (cal mol^−1 K^−1)=434, ΔUCp (cal mol^−1 K^−)=2400.

[2] = target: T2, full-length proMMP9(1-707) (SEQ ID NO:1) (Homo sapiens, UniProt P14780, R574P); experiment: proMMP9/MMP3 P126 Activation Assay; assay type: biochemical; conditions: 20 nM proMMP9, 20 nM MMP3, 80 min 37° C.
T2 construct: made in house; host or cells: HEK293 (proMMP9, secreted); E. coli (MMP3)
Procedure: The reaction volume was 50 μL. […] Reactivity of residual MMP3 towards P-126 substrate was minimal under these conditions.

[3] = target: T3, proMMP9(67-444;ΔFnII) (SEQ ID NO:5) (Homo sapiens, UniProt P14780, DEL216-390); experiment: ThermoFluor binding assay with proMMP9(67-444;ΔFnII); conditions: pH 7.0
T3 construct: start methionine (N); made in house; host or cells: E. coli BL21(DE3) RIL
T3 sequence (P14780 with tags, fused parts or gaps DEL216-390): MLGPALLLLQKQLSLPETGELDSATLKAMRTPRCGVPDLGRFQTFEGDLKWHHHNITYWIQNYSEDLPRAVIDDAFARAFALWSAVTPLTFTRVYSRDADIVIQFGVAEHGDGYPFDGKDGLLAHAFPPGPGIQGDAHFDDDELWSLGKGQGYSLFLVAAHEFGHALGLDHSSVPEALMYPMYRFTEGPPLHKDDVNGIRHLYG
Procedure: as §1, §2, §3, §4
The protein sample preparations had to include a desalting buffer exchange step via a PD-10 gravity column (GE Healthcare). The desalting buffer exchange was performed prior to diluting the protein to the final assay concentration of 3.5 μM proMMP9(67-444;ΔFnII) (SEQ ID NO:5). The concentration of proMMP9(67-444;ΔFnII) (SEQ ID NO:5) was determined spectrophotometrically based on a calculated extinction coefficient of ε280=33900 M^−1cm^−1, a calculated molecular weight of 22.6 kDa, and calculated pI of 5.20. ThermoFluor® reference conditions were defined as follows: 80 μg/mL (3.5 μM) proMMP9(67-444;ΔFnII) (SEQ ID NO:5), 50 μM 1,8-ANS, pH 7.0 Buffer (50 mM HEPES pH 7.0, 100 mM NaCl, 0.001% Tween-20, 2.5 mM MgCl2, 300 μM CaCl2). The thermodynamic parameters for proMMP9(67-444;ΔFnII) (SEQ ID NO:5) are as follows: Tm (° C.)=63 (+/−0.1), ΔUH(Tm) (cal mol^−1)=105000(+/−5000), ΔUS(Tm) (cal mol^−1 K^−1)=[…], ΔUCp (cal mol^−1 K^−1)=2000.

T2 sequence (P14780 20-707 R574P): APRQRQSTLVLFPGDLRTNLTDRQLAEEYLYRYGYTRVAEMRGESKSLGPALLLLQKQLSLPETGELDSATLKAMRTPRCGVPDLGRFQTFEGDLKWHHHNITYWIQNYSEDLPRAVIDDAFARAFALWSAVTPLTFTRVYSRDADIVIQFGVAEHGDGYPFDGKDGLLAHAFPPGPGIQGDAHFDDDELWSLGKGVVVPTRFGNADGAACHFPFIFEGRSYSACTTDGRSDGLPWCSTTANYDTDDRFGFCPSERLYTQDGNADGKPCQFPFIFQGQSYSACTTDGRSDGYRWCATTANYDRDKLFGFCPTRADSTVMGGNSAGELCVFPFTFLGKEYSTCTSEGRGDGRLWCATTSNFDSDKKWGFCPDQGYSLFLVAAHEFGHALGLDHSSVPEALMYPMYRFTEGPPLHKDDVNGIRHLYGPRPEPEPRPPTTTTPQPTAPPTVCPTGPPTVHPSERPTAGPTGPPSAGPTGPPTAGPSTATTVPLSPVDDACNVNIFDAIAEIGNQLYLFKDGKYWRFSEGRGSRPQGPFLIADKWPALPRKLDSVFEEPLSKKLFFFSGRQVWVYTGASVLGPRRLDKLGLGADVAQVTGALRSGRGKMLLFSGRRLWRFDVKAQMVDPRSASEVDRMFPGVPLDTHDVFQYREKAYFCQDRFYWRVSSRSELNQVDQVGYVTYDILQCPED

Kd [1] [µM] | IC50 [2] [µM] | Kd [3] [µM] | SMILES
– | 3.6 | – | CC(=O)Nc1nc(C)c(-c2csc(Nc3cccc4cc(C)oc34)n2)s1 [Example 9, N-[4′-Methyl-2-(2-methyl-benzofuran-7-ylamino)-[4,5′]bithiazolyl-2′-yl]-acetamide]
– | 5.6 | – | CC(=O)Nc1nc(C)c(-c2csc(Nc3cccc4c3OC(F)(F)O4)n2)s1 [Example 10, N-[2-(2,2-Difluoro-benzo[1,3]dioxol-4-ylamino)-4′-methyl-[4,5′]bithiazolyl-2′-yl]-acetamide]
0.24 | 1.3 | 2.1 | Cc1nc(C)c(-c2csc(Nc3cc(C(N)=O)ccc3OCC(F)(F)F)n2)s1 [Example 16, 3-(2′,4′-Dimethyl-[4,5′]bithiazolyl-2-ylamino)-4-(2,2,2-trifluoro-ethoxy)-benzamide]
21 | – | 6.7 | CCN(CC)S(=O)(=O)c1ccc(OC)c(Nc2nc(-c3sc(NC(C)=O)nc3C)cs2)c1 [Example 20, N-[2-(5-Diethylsulfamoyl-2-methoxy-phenylamino)-4′-methyl-[4,5]bithiazolyl-2′-yl]-acetamide]
6.4 | – | 1.6 | COc1ccc(C(F)(F)F)cc1Nc1nc(-c2sc(N)nc2C)cs1 [Example 22, N^2-(2-Methoxy-5-trifluoromethyl-phenyl)-4′-methyl-[4,5′]bithiazolyl-2,2′-diamine.HBr]
1 | 5.2 | 2.8 | COc1ccc(C(N)=O)cc1Nc1nc(-c2cnc(N)s2)cs1 [Example 27, 3-(2′-Amino-[4,5′]bithiazolyl-2-ylamino)-4-methoxy-benzamide.HBr]
14 | – | 3.9 | COc1cc(C(N)=O)ccc1Nc1nc(-c2sc(C)nc2C)cs1 [Example 35, 4-(2′,4′-Dimethyl-[4,5′]bithiazolyl-2-ylamino)-3-methoxy-benzamide]
0.57 | 3.6 | 7.2 | COc1cc(C)c(C(N)=O)cc1Nc1nc(-c2sc(N3CCN(C)CC3)nc2C)cs1 [Example 37, 4-Methoxy-2-methyl-5-[4′-methyl-2′-(4-methyl-piperazin-1-yl)-[4,5]bithiazolyl-2-ylamino]-benzamide.HCl]
0.55 | 0.8 | – | Cc1nc(C)c(-c2csc(Nc3cc(C(N)=O)ccc3CC(C)C)n2)s1 [Example 38, 3-(2′,4′-Dimethyl-[4,5′]bithiazolyl-2-ylamino)-4-isobutyl-benzamide.TFA]
84 | ~13 | 61 | COc1cc(Nc2nc(-c3sc(C)nc3C)cs2)c2ncccc2c1 [Example 41, (2′,4′-Dimethyl-[4,5′]bithiazolyl-2-yl)-(6-methoxy-quinolin-8-yl)-amine.TFA]
> 95 | 9.1 | 52 | Cc1nc(C)c(-c2csc(Nc3cccc4cccnc34)n2)s1 [Example 42, (2′,4′-Dimethyl-[4,5′]bithiazolyl-2-yl)-quinolin-8-yl-amine.TFA]
0.87 | 1.2 | 1.6 | COc1ccc(S(N)(=O)=O)cc1Nc1nc(-c2sc(N)nc2C)cs1 [Example 52, 3-(2′-Amino-4′-methyl-[4,5′]bithiazolyl-2-ylamino)-4-methoxy-benzenesulfonamide.HBr]
1.5 | 1.9 | 1.2 | COc1ccc(S(N)(=O)=O)cc1Nc1nc(-c2sc(NC(C)=O)nc2C)cs1 [Example 53, N-[2-(2-Methoxy-5-sulfamoyl-phenylamino)-4′-methyl-[4,5′]bithiazolyl-2′-yl]-acetamide.HBr]
1.3 | 12 | 2.3 | COc1ccc(C(=O)NCc2ccccc2)cc1Nc1nc(-c2sc(N)nc2C)cs1 [Example 56, 3-(2′-Amino-4′-methyl-[4,5′]bithiazolyl-2-ylamino)-N-benzyl-4-methoxy-benzamide.TFA]
0.56 | 0.45 | 0.087 | COc1ccc([N+](=O)[O-])cc1Nc1nc(-c2sc(N)nc2C)cs1 [Example 67, N^2-(2-Methoxy-5-nitro-phenyl)-4′-methyl-[4,5′]bithiazolyl-2,2′-diamine.HBr]
8.6 | 1 | 1.2 | Cc1nc(C)c(-c2csc(Nc3cc(C#N)ccc3OC(C)C)n2)s1 [Example 72, 3-(2′,4′-Dimethyl-[4,5′]bithiazolyl-2-ylamino)-4-isopropoxy-benzonitrile.HBr]
4.3 | 0.52 | 0.33 | CC(=O)Nc1nc(C)c(-c2csc(Nc3cc(C#N)ccc3OC(C)C)n2)s1 [Example 73, N-[2-(5-Cyano-2-isopropoxy-phenylamino)-4′-methyl-[4,5′]bithiazolyl-2′-yl]-acetamide.HBr]
– | 0.067 | – | Cc1nc(C2CCN(C)CC2)sc1-c1csc(Nc2cc(S(N)(=O)=O)ccc2OC(C)C)n1 [Example 156, 4-Isopropoxy-3-((4′-methyl-2′-(1-methylpiperidin-4-yl)-[4,5′-bithiazol]-2-yl)amino)benzenesulfonamide.TFA]
– | 0.29 | – | CCOc1ccncc1Nc1nc(-c2sc(C3CCN(C)CC3)nc2C)cs1 [Example 158, N-(4-Ethoxypyridin-3-yl)-4′-methyl-2′-(1-methylpiperidin-4-yl)-[4,5′-bithiazol]-2-amine.TFA]

SMILES | Kd [1] [µM] | IC50 [2] [µM] | Kd [3] [µM]
CCC(C)Oc1ccc(C(N)=O)cc1Nc1nc(-c2sc(C)nc2C)cs1 (racemic) [Example 14, (±)-4-sec-Butoxy-3-(2′,4′-dimethyl-[4,5′]bithiazolyl-2-ylamino)-benzamide.TFA] | 0.57 | 4.7 | 7
Cc1nc(C)c(-c2csc(Nc3cc(C(N)=O)ccc3OC(C)(C)C)n2)s1 [Example 12, 4-tert-Butoxy-3-(2′,4′-dimethyl-[4,5′]bithiazolyl-2-ylamino)-benzamide] | 1.9 | 2.5 | 15
